Measured values: patent publication US20240239790A1, “7-Morpholino-1,6-Naphthyridin-5-yl Derivatives and Pharmaceutical Compositions Thereof Useful as DNA-PK Inhibitor” (adMare Therapeutics Society, priority 2021, published 2024)
Where two headings read alike, the source gives them in different places.

What was measured:
[1] = Hepatocyte Stability Assay, mouse hepatocytes; format: in vitro ADME; conditions: for hepatocyte CLint at 1 uM: male, CD-1, cryopreserved hepatocytes, pH 7.3, mouse hepatocytes 0.7 million cells per mL, 1 uM compound; for Hepatocyte Stability Mouse % rem. 120 min: mouse hepatocytes
Experimental: Cryopreserved mouse hepatocytes were obtained from a pool of 10 or more male CD-1 mice. Cryopreserved human hepatocytes were obtained from a pool of 10 or more donors of mixed gender. Final hepatocyte density was 0.7 million viable cells per mL and test compound concentration was 1 uM with a maximum of 0.01% DMSO. Cryopreserved hepatocytes were thawed, washed, and resuspended in Krebs-Heinslet buffer (pH 7.3). The reaction was initiated by adding the test compound into cell suspension and incubated for 0, […], 1, 1.5, and 2 h, respectively, at 37° C./5% C02. The reaction was stopped by adding acetonitrile into the incubation mixture. Samples were then mixed, transferred completely to another 96-well plate, and centrifuged. Supernatants were used for HPLC-MS/MS analysis. […] Peak areas corresponding to the test compound were recorded.

DNA-PK = molecular target: T1, DNA-PK (Homo sapiens, UniProt P78527); test: DNA-PK Assay for Biochemical Enzymatic Inhibition (ADP Glo Kinase assay); conditions: DNA-PK enzyme, Table 1
T1 construct: purchased Invitrogen PR9107A
Outline: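 Human DNA-PK (25 ng) preincubated 15 min with compounds (ten three-fold dilutions) in HEPES pH 7.5, MgCl2, KCl, calf thymus DNA buffer, then substrate 434.4 μM and ATP 64.4 μM (final) for 60 min at room temperature. ADP-Glo luminescence; percent inhibition fitted by four-parameter regression for IC50.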

[2] = test system: pDNA-PK induction in HCT116 tumour spheroids; test: Multicellular tumour spheroid + radiation, pDNA-PK (ser2056) inhibition, immunohistochemical endpoint, HCT116; format: cell-based; conditions: Homo sapiens, 20 Gy, 20% O2
Outline: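 HCT116 spheroids (~0.5 mm) in MEM/10% FBS, 20% O2, 37° C., pre-incubated 1 h with compound (10 or 5 μM down to 3.5 nM), irradiated 20 Gy, then 2 h further with compound. Cryosections immunostained for pDNA-PK ser2056; EC50 is concentration halving radiation-induced pDNA-PK.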

[3] = HCT-116, 2 hours following radiation, Example 9 Study 2, read-out: Spheroid Cell line: HCT116 Immunohistochemical endpoint pDNA-PK inhibition EC50
[4] = HCT-116, Spheroid, Cell Line: HCT115 (so in the source), 2 hours following radiation, Example 7, read-out: EC50, Immunohistochemical endpoint, pDNA-PK inhibition
[5] = HCT-116, 2 h, spheroids, Example 8, read-out: Cell line: HCT116 Immunohistochemical endpoint pDNA-PK inhibition EC50

Row | SMILES | hepatocyte CLint at 1 uM [1] [µL/min/1e6 cells] | Hepatocyte Stability Mouse % rem. 120 min [1] | IC50 (DNA-PK) [nM] | EC50 [2, 3] [nM] | EC50 [2, 4] [nM] | EC50 [2, 5] [nM]
1 | CN1CCN(C(=O)COc2cnc(N[C@H]3CC[C@@H](Oc4nc(N5CCOCC5)cc5ncccc45)CC3)nc2)CC1 [Compound 62, 1-(4-Methylpiperazin-1-yl)-2-((2-(((1s,4s)-4-((7-morpholino-1,6-naphthyridin-5-yl)oxy)cyclohexyl)amino)pyrimidin-5-yl)oxy)ethan-1-one] | < 8.2 | H (% remaining = 75-100%) | < 0.5 | 500 to 1000 | 500 to 1000 | 
2 | CNC(=O)COc1cnc(N[C@H]2CC[C@@H](Oc3nc(N4CCOCC4)cc4ncccc34)CC2)nc1 [Compound 71, N-Methyl-2-((2-(((1s,4s)-4-((7-morpholino-1,6-naphthyridin-5-yl)oxy)cyclohexyl)amino)pyrimidin-5-yl)oxy)acetamide] | < 8.2 | G (% remaining = 50-75%) | < 0.5 | 10 to 500 | 10 to 500 | 
3 | c1cnc2cc(N3CCOCC3)nc(O[C@H]3CC[C@@H](Nc4ncc(OCCN5CCOCC5)cn4)CC3)c2c1 [Compound 68, N-((1s,4s)-4-((7-Morpholino-1,6-naphthyridin-5-yl)oxy)cyclohexyl)-5-(2-morpholinoethoxy)pyrimidin-2-amine] | < 8.2 | G (% remaining = 50-75%) | < 0.5 | 500 to 1000 | 500 to 1000 | 
4 | O=C(COc1cnc(N[C@H]2CC[C@@H](Oc3nc(N4CCOCC4)cc4ncccc34)CC2)nc1)N1CCC1 [Compound 75, 1-(Azetidin-1-yl)-2-((2-(((1s,4s)-4-((7-morpholino-1,6-naphthyridin-5-yl)oxy)cyclohexyl)amino)pyrimidin-5-yl)oxy)ethan-1-one] | < 8.2 | G (% remaining = 50-75%) | < 0.5 | 500 to 1000 | 500 to 1000 | 
5 | CN1CCN(CCOc2cnc(N[C@H]3CC[C@@H](Oc4nc(N5CCOCC5)cc5ncccc45)CC3)nc2)CC1 [Compound 69, 5-(2-(4-Methylpiperazin-1-yl)ethoxy)-N-((1s,4s)-4-((7-morpholino-1,6-naphthyridin-5-yl)oxy)cyclohexyl)pyrimidin-2-amine] | < 8.2 | H (% remaining = 75-100%) | < 0.5 | 1000 to 10000 | 1000 to 10000 | 
6 | NCCOc1cnc(N[C@H]2CC[C@@H](Oc3nc(N4CCOCC4)cc4ncccc34)CC2)nc1 [Compound 65, 5-(2-Aminoethoxy)-N-((1s,4s)-4-((7-morpholino-1,6-naphthyridin-5-yl)oxy)cyclohexyl)pyrimidin-2-amine] | < 8.2 | G (% remaining = 50-75%) | < 0.5 | 1000 to 10000 | 1000 to 10000 | 
7 | O=C(Cn1c(=O)n(C2CCOCC2)c2nc(N[C@H]3CC[C@@H](Oc4nc(N5CCOCC5)cc5ncccc45)CC3)ncc21)N1CCOCC1 [Compound 98, 2-(((1s,4s)-4-((7-Morpholino-1,6-naphthyridin-5-yl)oxy)cyclohexyl)amino)-7-(2-morpholino-2-oxoethyl)-9-(tetrahydro-2H-pyran-4-yl)-7,9-dihydro-8H-purin-8-one] | < 8.2 | G (% remaining = 50-75%) | < 0.5 | 10 to 500 | 10 to 500 | 
8 | CC(=O)NCCOc1cnc(N[C@H]2CC[C@@H](Oc3nc(N4CCOCC4)cc4ncccc34)CC2)nc1 [Compound 66] | < 8.2 | F (% remaining = 25-50%) | 0.5 to 1 | 1000 to 10000 | 1000 to 10000 | 
9 | CN(C)C(=O)COc1cnc(N[C@H]2CC[C@@H](Oc3nc(N4CCOCC4)cc4ncccc34)CC2)nc1 [Compound 54, N,N-Dimethyl-2-((2-(((1s,4s)-4-((7-morpholino-1,6-naphthyridin-5-yl)oxy)cyclohexyl)amino)pyrimidin-5-yl)oxy)acetamide] | < 8.2 | G (% remaining = 50-75%) | 0.5 to 1 | 10 to 500 | 10 to 500 | 10 to 500
10 | CN(C)CCOc1cnc(N[C@H]2CC[C@@H](Oc3nc(N4CCOCC4)cc4ncccc34)CC2)nc1 [Compound 64, 5-(2-(Dimethylamino)ethoxy)-N-((1s,4s)-4-((7-morpholino-1,6-naphthyridin-5-yl)oxy)cyclohexyl)pyrimidin-2-amine] | < 8.2 | G (% remaining = 50-75%) | < 0.5 | 10 to 500 | 10 to 500 | 10 to 500

Results, then the compound that gave them:

Row | hepatocyte CLint at 1 uM [1] [µL/min/1e6 cells] | Hepatocyte Stability Mouse % rem. 120 min [1] | IC50 (DNA-PK) [nM] | EC50 [2, 3] [nM] | EC50 [2, 4] [nM] | EC50 [2, 5] [nM] | SMILES
11 | < 8.2 | G (% remaining = 50-75%) | 1 to 10 | 1000 to 10000 | 1000 to 10000 |  | CS(=O)(=O)c1cnc2cc(N3CCOCC3)nc(O[C@H]3CC[C@@H](NC(=O)c4ncco4)CC3)c2c1 [Compound 204c, N-((1s,4s)-4-((3-(methylsulfonyl)-7-morpholino-1,6-naphthyridin-5-yl)oxy)cyclohexyl)oxazole-2-carboxamide]
12 | > 8.2 | F (% remaining = 25-50%) | < 0.5 | 10 to 500 | 10 to 500 |  | Cn1c(=O)n(C)c2nc(N[C@H]3CC[C@@H](Oc4nc(N5CCOCC5)cc5ncccc45)CC3)ncc21 [Compound 101, 7,9-Dimethyl-2-(((1s,4s)-4-((7-morpholino-1,6-naphthyridin-5-yl)oxy)cyclohexyl)amino)-7,9-dihydro-8H-purin-8-one]
13 | > 8.2 | F (% remaining = 25-50%) | 0.5 to 1 | 1000 to 10000 | 1000 to 10000 |  | O=S(=O)(CC(F)F)Nc1cnc2cc(N3CCOCC3)nc(O[C@H]3CC[C@@H](Nc4ncccn4)CC3)c2c1 [Compound 193, 2,2-difluoro-N-(7-morpholino-5-(((1s,4s)-4-(pyrimidin-2-ylamino)cyclohexyl)oxy)-1,6-naphthyridin-3-yl)ethane-1-sulfonamide]
14 | < 8.2 | G (% remaining = 50-75%) | 0.5 to 1 | 500 to 1000 | 500 to 1000 |  | CN(C)C(=O)COc1ccc(C(=O)N[C@H]2CC[C@@H](Oc3nc(N4CCOCC4)cc4ncccc34)CC2)cn1 [Compound 117, 6-(2-(dimethylamino)-2-oxoethoxy)-N-((1s,4s)-4-((7-morpholino-1,6-naphthyridin-5-yl)oxy)cyclohexyl)nicotinamide]
15 | < 8.2 | H (% remaining = 75-100%) | < 0.5 | 10 to 500 | 10 to 500 |  | O=S(=O)(CF)Nc1cnc2cc(N3CCOCC3)nc(O[C@H]3CC[C@@H](Nc4ncccn4)CC3)c2c1 [Compound 192, 1-fluoro-N-(7-morpholino-5-(((1s,4s)-4-(pyrimidin-2-ylamino)cyclohexyl)oxy)-1,6-naphthyridin-3-yl)methanesulfonamide]
16 | < 8.2 | H (% remaining = 75-100%) | < 0.5 | 10 to 500 | 10 to 500 |  | CN(C)C(=O)Cn1c(=O)n(C)c2nc(N[C@H]3CC[C@@H](Oc4nc(N5CCOCC5)cc5ncccc45)CC3)ncc21 [Compound 102, N,N-Dimethyl-2-(9-methyl-2-(((1s,4s)-4-((7-morpholino-1,6-naphthyridin-5-yl)oxy)cyclohexyl)amino)-8-oxo-8,9-dihydro-7H-purin-7-yl)acetamide]
17 | < 8.2 | H (% remaining = 75-100%) | 1 to 10 | 1000 to 10000 | 1000 to 10000 |  | CS(=O)(=O)c1cnc2cc(N3CCOCC3)nc(O[C@H]3CC[C@@H](Nc4ncc(OCC(=O)N5CCOCC5)cn4)CC3)c2c1 [Compound 204a, 2-((2-(((1s,4s)-4-((3-(methylsulfonyl)-7-morpholino-1,6-naphthyridin-5-yl)oxy)cyclohexyl)amino)pyrimidin-5-yl)oxy)-1-morpholinoethan-1-one]
18 |  |  | 0.5 to 1 | 10000 to 100000 | 10000 to 100000 | 10000 to 100000 | CS(=O)(=O)NC(=O)c1cnc2cc(N3CCOCC3)nc(O[C@H]3CC[C@@H](n4ccnc4)CC3)c2c1 [Compound 175, 5-(((1s,4s)-4-(1H-imidazol-1-yl)cyclohexyl)oxy)-N-(methylsulfonyl)-7-morpholino-1,6-naphthyridine-3-carboxamide]
